Reference: US8476253B2, “Amide derivative” (Daiichi Sankyo Company, Limited, priority 2009, dated 2013)
Structures can show the parent of a compound that is named as a salt. Where two headings read alike, the source gives them in different places.

Tests used:
[1] = system: muscarine M3 receptor; test: Effect of suppressing methacholine-induced airway contraction (in vivo, intratracheal administration); design: species or system guinea pig; settings: guinea pigs, intratracheal administration 60 minutes before 30 μg/kg i.v. methacholine; AUC of increase in airway pressure over 10 minutes
Summary of the method: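 Anesthetized, gallamine-paralysed, ventilated male Hartley guinea pigs (350–550 g); compound in 5% glucose given intratracheally 60 min before 30 μg/kg i.v. methacholine. Airway pressure AUC over 10 min scored; ID50 from inhibition versus 5% glucose vehicle group.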

[2] = target: T1, human M3 receptor (Homo sapiens, UniProt P20309); test: Test for binding to human M3 receptor
T1 construct: expressed in transfected cells; host or cells: CHO cells
T1 sequence (P20309 whole entry): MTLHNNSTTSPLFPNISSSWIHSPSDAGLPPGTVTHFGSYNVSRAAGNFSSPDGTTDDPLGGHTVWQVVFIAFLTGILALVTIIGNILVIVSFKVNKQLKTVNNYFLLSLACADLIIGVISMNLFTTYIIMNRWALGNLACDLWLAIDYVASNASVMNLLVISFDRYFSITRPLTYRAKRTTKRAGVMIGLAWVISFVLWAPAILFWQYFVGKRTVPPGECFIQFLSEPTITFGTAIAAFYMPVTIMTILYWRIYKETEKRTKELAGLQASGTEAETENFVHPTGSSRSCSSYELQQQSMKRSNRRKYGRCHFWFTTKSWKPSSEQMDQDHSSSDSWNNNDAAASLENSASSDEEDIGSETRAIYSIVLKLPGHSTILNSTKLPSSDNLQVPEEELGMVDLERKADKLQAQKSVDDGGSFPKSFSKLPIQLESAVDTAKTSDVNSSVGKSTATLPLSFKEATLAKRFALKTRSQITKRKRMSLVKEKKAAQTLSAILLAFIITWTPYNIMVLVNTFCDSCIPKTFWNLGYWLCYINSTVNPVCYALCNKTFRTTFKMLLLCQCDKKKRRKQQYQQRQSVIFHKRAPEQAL
Summary of the method: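 CHO-cell crude membranes expressing human M3 were incubated with [N-methyl-3H]-(−)-scopolamine methyl chloride in 50 mM Tris-HCl, 0.5 mM EDTA, pH 7.4, for 60 min at room temperature. Bound ligand was collected on PEI-pretreated glass-fibre filters and counted by liquid scintillation. Ki was calculated from IC50 and the radioligand Kd.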

[3] = target: T2, human NK2 receptor (Homo sapiens, UniProt P21452); test: Test for binding to human NK2 receptor
T2 construct: expressed in transfected cells; host or cells: COS cells
T2 sequence (P21452 1-398): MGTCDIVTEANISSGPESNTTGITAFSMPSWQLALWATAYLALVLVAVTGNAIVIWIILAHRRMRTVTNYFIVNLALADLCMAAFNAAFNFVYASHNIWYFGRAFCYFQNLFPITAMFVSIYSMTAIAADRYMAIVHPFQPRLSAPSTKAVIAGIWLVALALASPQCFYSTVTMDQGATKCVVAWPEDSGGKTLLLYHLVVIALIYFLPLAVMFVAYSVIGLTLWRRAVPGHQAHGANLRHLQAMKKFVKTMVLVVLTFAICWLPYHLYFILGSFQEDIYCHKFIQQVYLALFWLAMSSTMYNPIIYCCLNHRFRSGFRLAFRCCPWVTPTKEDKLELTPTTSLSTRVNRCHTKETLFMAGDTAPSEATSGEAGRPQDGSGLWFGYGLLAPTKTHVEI
Summary of the method: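 Radioligand binding with [^3H]SR 48968 on cryopreserved COS cells expressing human NK2 receptor (5.0×10^5 cells/mL), in 50 mM Tris-HCl pH 7.4 with BSA, MnCl2 and protease inhibitors. Bound label collected on PEI-treated GF/B filters, counted by liquid scintillation; Ki derived from IC50 and radioligand Kd.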

[4] = CHO cells expressing human M3 receptor, [N-methyl-3H]-(-)-Scopolamine methyl chloride 0.5 nM, Ki from IC50 and Kd, read-out: Ki
[5] = COS cells expressing human NK2 receptor, [3H]SR 48968 1 nM, Ki from IC50 and Kd, read-out: Ki

Row | SMILES | ID50 [1] [mg/kg] | Ki [2, 4] [nM] | Ki [3, 5] [nM] | Ki [2] [nM] | Ki [3] [nM]
1 | CN(CCN1CCC(OC(=O)Nc2ccccc2-c2ccccc2)CC1)C(=O)CCCCCN(C)c1ccc(C(=O)N(C)CCCN(C)C(=O)CO[C@H]2Cc3ccccc3C23CCN(CC[C@@]2(c4ccc(F)cc4)CN(C(=O)c4cc(C(F)(F)F)cc(C(F)(F)F)c4)CO2)CC3)cc1 [Example 76, 1-{2-[{6-[{4-[{3-[({[(2S)-1′-{2-[(5R)-3-[3,5-Bis(trifluoromethyl)benzoyl]-5-(4-fluorophenyl)-1,3-oxazolidin-5-yl]ethyl}-2,3-dihydrospiro[indene-1,4′-piperidin]-2-yl]oxy}acetyl)(methyl)amino]propyl}(methyl)carbamoyl]phenyl}(methyl)amino]hexanoyl}(methyl)amino]ethyl}piperidin-4-yl biphenyl-2-ylcarbamate] | 0.0292 | 3.4 | 1 |  | 
2 | Cc1cc(NCCCCCC(=O)N(C)CCN2CCC(OC(=O)Nc3ccccc3-c3ccccc3)CC2)sc1C(=O)N(C)CCCN(C)C(=O)CO[C@H]1Cc2ccccc2C12CCN(CC[C@@]1(c3ccc(F)cc3)CN(C(=O)c3cc(C(F)(F)F)cc(C(F)(F)F)c3)CO1)CC2 [Example 30, 1-(2-{[6-({5-[{3-[({[(2S)-1′-{2-[(5R)-3-[3,5-Bis(trifluoromethyl)benzoyl]-5-(4-fluorophenyl)-1,3-oxazolidin-5-yl]ethyl}-2,3-dihydrospiro[indene-1,4′-piperidin]-2-yl]oxy}acetyl)(methyl)amino]propyl}(methyl)carbamoyl]-4-methyl-2-thienyl}amino)hexanoyl](methyl)amino}ethyl)piperidin-4-yl biphenyl-2-ylcarbamate trihydrochloride] | 0.0088 |  |  | 0.62 | 0.71
3 | CN(CCN1CCC(OC(=O)Nc2ccccc2-c2ccccc2)CC1)C(=O)CCCCCNc1ccc(C(=O)N(C)CCN(C)C(=O)CO[C@H]2Cc3ccccc3C23CCN(CC[C@@]2(c4ccc(F)cc4)CN(C(=O)c4cc(C(F)(F)F)cc(C(F)(F)F)c4)CO2)CC3)cc1 [Example 15, 1-(2-{[6-({4-[{2-[({[(2S)-1-{2-[(5R)-3-[3,5-Bis(trifluoromethyl)benzoyl]-5-(4-fluorophenyl)-1,3-oxazolidin-5-yl]ethyl}-2,3-dihydrospiro[indene-1,4′-piperidin]-2-yl]oxy}acetyl)(methyl)amino]ethyl}(methyl)carbamoyl]phenyl}amino)hexanoyl](methyl)amino}ethyl)piperidin-4-yl biphenyl-2-ylcarbamate] | 0.0375 | 1.2 | 0.91 |  | 
4 | CN(CCN1CCC(OC(=O)Nc2ccccc2-c2ccccc2)CC1)C(=O)CCCCCNc1ccc(C(=O)N2CCCN(C(=O)CO[C@H]3Cc4ccccc4C34CCN(CC[C@@]3(c5ccc(F)cc5)CN(C(=O)c5cc(C(F)(F)F)cc(C(F)(F)F)c5)CO3)CC4)CC2)cc1 [Example 110, 1-{2-[{6-[(4-{[4-({[(2S)-1′-{2-[(5R)-3-[3,5-Bis(trifluoromethyl)benzoyl]-5-(4-fluorophenyl)-1,3-oxazolidin-5-yl)ethyl}-2,3-dihydrospiro[indene-1,4′-piperidin]-2-yl]oxy}acetyl)-1,4-diazepan-1-yl]carbonyl}phenyl)amino]hexanoyl}(methyl)amino]ethyl}piperidin-4-yl biphenyl-2-ylcarbamate trihydrochloride] | 0.0318 |  |  | 0.93 | 0.6
5 | CN(CCN1CCC(OC(=O)Nc2ccccc2-c2ccccc2)CC1)C(=O)CCCCNc1ccc(C(=O)N(C)CCCN(C)C(=O)CO[C@H]2Cc3ccccc3C23CCN(CC[C@@]2(c4ccc(F)cc4)CN(C(=O)c4cc(C(F)(F)F)cc(C(F)(F)F)c4)CO2)CC3)cc1 [Example 32, 1-(2-{[5-({4-[{3-[({[(2S)-1′-{2-[(5R)-3-[3,5-Bis(trifluoromethyl)benzoyl]-5-(4-fluorophenyl)-1,3-oxazolidin-5-yl]ethyl}-2,3-dihydrospiro[indene-1,4′-piperidin]-2-yl]oxy}acetyl)(methyl)amino]propyl}(methyl)carbamoyl]phenyl}amino)pentanoyl](methyl)amino}ethyl)piperidin-4-yl biphenyl-2-ylcarbamate trihydrochloride] | 0.0356 |  |  | 1.1 | 0.74
6 | CN(CCN1CCC(OC(=O)Nc2ccccc2-c2ccccc2)CC1)C(=O)CCCN(C)c1ccc(C(=O)N(C)CCCN(C)C(=O)CO[C@H]2Cc3ccccc3C23CCN(CC[C@@]2(c4ccc(F)cc4)CN(C(=O)c4cc(C(F)(F)F)cc(C(F)(F)F)c4)CO2)CC3)cc1 [Example 36, 1-{2-[{4-[{4-[{3-[({[(2S)-1′-{2-[(5R)-3-[3,5-Bis(trifluoromethyl)benzoyl]-5-(4-fluorophenyl)-1,3-oxazolidin-5-yl]ethyl}-2,3-dihydrospiro[indene-1,4′-piperidin]-2-yl]oxy}acetyl)(methyl)amino]propyl}(methyl)carbamoyl]phenyl}(methyl)amino]butanoyl}(methyl)amino]ethyl}piperidin-4-yl biphenyl-2-ylcarbamate trihydrochloride] | 0.0146 |  |  | 1.8 | 0.96
